The target of one test is T1, Type-B CCK receptor (Cavia porcellus, UniProt H0VZC5).
T1 construct: Cortical and pancreatic membranes were prepared as described; from tissue; host or cells: guinea pig cerebral cortex membranes
T1 sequence (H0VZC5 1-426): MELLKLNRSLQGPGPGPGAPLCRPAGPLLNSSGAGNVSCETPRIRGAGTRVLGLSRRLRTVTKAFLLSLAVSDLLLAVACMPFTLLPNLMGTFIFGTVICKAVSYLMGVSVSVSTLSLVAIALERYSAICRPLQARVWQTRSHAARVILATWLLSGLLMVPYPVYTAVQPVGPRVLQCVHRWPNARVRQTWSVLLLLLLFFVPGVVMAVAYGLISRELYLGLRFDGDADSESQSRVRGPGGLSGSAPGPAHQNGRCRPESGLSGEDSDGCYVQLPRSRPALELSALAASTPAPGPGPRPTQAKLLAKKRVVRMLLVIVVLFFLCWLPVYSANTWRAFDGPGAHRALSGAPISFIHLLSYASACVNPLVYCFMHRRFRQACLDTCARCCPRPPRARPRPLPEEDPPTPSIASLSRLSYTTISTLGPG
Description: Radioligand binding of [125I]BH-CCK-8 in guinea pig cerebral cortical membrane preparations. An excerpt:
(§1) CCK-8 [Asp-Tyr(SO3 H)-Met-Gly-Trp-Met-Asp-PheNH2 ], bestatin and phosphoramidion were purchased from Peptide International (Louisville, Ky.). EGTA (ethylene glycol-bis-(β-aminoethyl) N,N,N',N'-tetraacetic acid), HEPES (4-(2-hydroxyethyl)-1-piperazine-enthanesulfonic acid) and BSA (bovine serum albumin) were purchased from Sigma Chemical Co. (St. Louis, Mo.). [^125 I]-Bolton-Hunteer (BH-CCK-8) (specific activity, 2200 Ci/mmol) was obtained from New England Nuclear (Boston, Mass.). Male guinea pigs, 250 to 325 g, were obtained from Scientific Small Animal Laboratory and Farm (Arlington Heights, Ill.). Collagenase, code CLSPA was purchased from Worthington (Frehold, N.J.).
(§2) Protocol For Radioligand Binding Experiments in Guinea Pig Cerebral Cortical and Pancreatic Membrane Preparations
(§3) Cortical and pancreatic membranes were prepared as described (Lin and Miller; J. Pharmacol. Exp. Ther. 1985, 232:775-780,). In brief, cortex and pancreas were removed and rinsed with ice-cold saline. Visible fat and connective tissues were removed from the pancreas. […] The homogenates were entrifuged for 10 minutes at 1075×g and pellets were discarded. The supernatants were saved and centrifuged at 38,730×g for 20 minutes. The resultant pellets were rehomogenized in 25 mL of 50 mM Tris-HCl buffer with a Teflon-glass homogenizer, 5 up and down strokes. The homogenates were centrifuged again at 38,730×g for 20 minutes. Pellets werre then resuspended in 20 mM HEPES, containing 1 mM EGTA, 118 mM NaCl, 4.7 mM KCl, 5 mM MgCl2, 100 μM bestatin, 3 μM phosphoramidon, pH 7.4 at 22° C. with a Teflon-glass homogenizer, 15 up and down strokes. Resuspension volume for the cortex was 15-18 mL per gram of original wet weight and 60 mL per gram for the pancreas.
(§4) [^125 I]Bolton-Hunter CCK-8 and test compounds were diluted with HEPES-EGTA-salt buffer (see above) containing 0.5% BSA. To 1 mL Skatron polystyrene tubes were added 25 μL of test compounds, 25 μL of [^125 I]BH-CCK-8 and 200 μL of membrane suspension. The final BSA concentration was 0.1%. The cortical tissues were incubated at 30° C. for 150 minutes and pancreatic tissues were incubated at 37° C. for 150 min. Incubations were terminated by filtration using Skatron Cell Harvester and SS32 microfiber filter mats. […] IC50 s were determined from the Hill analysis.

The next test concerns the target T2, Type-A CCK receptor (Cavia porcellus, UniProt Q63931).
T2 construct: Cortical and pancreatic membranes were prepared as described; from tissue; host or cells: guinea pig pancreas membranes
T2 sequence (Q63931 1-430): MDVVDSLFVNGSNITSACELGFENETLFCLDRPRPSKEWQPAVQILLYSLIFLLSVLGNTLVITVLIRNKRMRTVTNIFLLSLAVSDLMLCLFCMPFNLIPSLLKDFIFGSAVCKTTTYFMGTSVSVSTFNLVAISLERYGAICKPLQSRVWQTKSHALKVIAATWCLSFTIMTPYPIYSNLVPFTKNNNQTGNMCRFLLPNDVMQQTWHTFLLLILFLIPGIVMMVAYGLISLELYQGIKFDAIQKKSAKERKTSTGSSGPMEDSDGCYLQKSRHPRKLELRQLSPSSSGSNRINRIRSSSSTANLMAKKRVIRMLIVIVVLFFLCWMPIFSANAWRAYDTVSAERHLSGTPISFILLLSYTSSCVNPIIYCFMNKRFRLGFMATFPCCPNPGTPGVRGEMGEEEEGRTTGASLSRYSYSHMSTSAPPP
Description: Radioligand binding of [125I]BH-CCK-8 in guinea pig pancreatic membrane preparations.
Text: as §1, §2, §3, §4

The mark [1] stands for this setting: guinea pig cortical membranes, 30° C., 150 minutes, read-out: IC50 (nM) 125I-BH-CCK-8 Type-B receptor.
Setting [2] is: guinea pig pancreatic membranes, 37° C., 150 min, read-out: IC50 (nM) 125I-BH-CCK-8 Type-A receptor.
Where [3] appears, read: IC50 (nM) 125I-BH-CCK-8 Type-A receptor, guinea pig pancreatic membranes, 37° C., 150 min.
Setting [4] is: IC50 (nM) 125I-BH-CCK-8 Type-B receptor, guinea pig cortical membranes, 30° C., 150 minutes.

Structures can show the parent of a compound that is named as a salt. Where two headings read alike, the source gives them in different places. *1 amine or outer side, *2 acyl side, *3 side chain or, on linkers, in order; H or OH if unused. Where a SMILES comes first, the peptide text is derived from it. Side-chain parts run from the residue outwards. [ ]: non-standard residue; d: D form. The star is where a group is joined. Acryloyl(3-(pyridin-3-yl)) = O=C(C=Cc1cccnc1)*; 2Naphthoyl(6-OH) = O=C(c1ccc2cc(O)ccc2c1)*; NMeW = CN[C@@H](Cc1c[nH]c2ccccc12)C(=O)O; Isobutyloxycarbonyl = CC(C)COC(=O)*; Adoc = O=C(OC12CC3CC(CC(C3)C1)C2)*; Isopropoxycarbonyl = CC(C)OC(=O)*; NMeF = CN[C@@H](Cc1ccccc1)C(=O)O; NMeD = CN[C@@H](CC(=O)O)C(=O)O; X4 = O=C(OC1C2CC3CC(C2)CC1C3)*; NH(2-Me-phenyl) = Cc1ccccc1N*; X1 = O=C(C=Cc1ccc(O)cc1)*; Cbz = O=C(OCc1ccccc1)*; Boc = CC(C)(C)OC(=O)*; CO = O=C([*:1])[*:2]; X6 = O=C(Oc1ccccc1)*; NHtBu = CC(C)(C)N*; Moc = COC(=O)*

The term IC50 denotes the point on the concentration scale where inhibition reaches its midpoint. On to `CN(C(=O)[C@H](CCCCNC(=O)C=Cc1cccnc1)NC(=O)[C@H](Cc1c[nH]c2ccccc12)NC(=O)OC(C)(C)C)[C@@H](CC(=O)O)C(=O)N[C@@H](Cc1ccccc1)C(N)=O` [Example 67, t-BOC-Trp-Lys-(ε-N-3-(3-pyridyl)acrylyl)-(NMe)Asp-PheNH2] (Boc-WK(Acryloyl(3-(pyridin-3-yl)))[NMeD]F-NH2), for which the IC50 on Type-B CCK receptor (setting [1]) stood at 8300 nM; at Type-A CCK receptor (setting [2]), 40 nM.
As to `CN[C@@H](Cc1c[nH]c2ccccc12)C(=O)N[C@@H](CCCCNC(=O)Nc1ccccc1C)C(=O)N(C)[C@@H](CC(=O)O)C(=O)N[C@@H](Cc1ccccc1)C(N)=O` [Example 69, HCl-(NMe)Trp-Lys(ε-N-(2-methylphenyl)aminocarbonyl)-(NMe)Asp-PheNH2] (H-[NMeW]K([CO-NH(2-Me-phenyl)])[NMeD]F-NH2), the half-inhibitory concentration (IC50) at Type-B CCK receptor is more than 10000 nM; at Type-A CCK receptor (setting [3]), 14 nM.
Turning to `Cc1ccccc1NC(=O)NCCCC[C@H](NC(=O)CCc1c[nH]c2ccccc12)C(=O)N[C@@H](CC(=O)O)C(=O)N(C)[C@@H](Cc1ccccc1)C(N)=O` [Example 70, 3-(Indol-3-yl)propionyl-Lys(ε-N-(2-methylphenyl)aminocarbonyl)-Asp-(NMe)PheNH2], the figures for the concentration for half-maximal inhibition (IC50) on Type-B CCK receptor (setting [1]) and on Type-A CCK receptor (setting [2]) were more than 10000 nM and 13 nM, respectively.
Consider `CN(C(=O)[C@H](CCCCNC(=O)C=Cc1ccc(O)cc1)NC(=O)[C@H](Cc1c[nH]c2ccccc12)NC(=O)OC(C)(C)C)[C@@H](CC(=O)O)C(=O)N[C@@H](Cc1ccccc1)C(N)=O` [Example 71, t-BOC-Trp-Lys(ε-N-(4-hydroxycinnamoyl))-(NMe)Asp-PheNH2] (Boc-WK(X1)[NMeD]F-NH2), for which the IC50 on Type-B CCK receptor (setting [1]) came out at 5800 nM; on Type-A CCK receptor (setting [2]), 4.9 nM.
On to `CN(C(=O)[C@H](CCCCNC(=O)C=Cc1ccc(O)cc1)NC(=O)[C@H](Cc1c[nH]c2ccccc12)NC(=O)OC(C)(C)C)[C@@H](CC(=O)O)C(=O)N(C)[C@@H](Cc1ccccc1)C(N)=O` [Example 72, t-BOC-Trp-Lys(ε-N-(4-hydroxycinnamoyl))-(NMe)Asp-(NMe)PheNH2] (Boc-WK(X1)[NMeD][NMeF]-NH2), for which the IC50 on Type-B CCK receptor (setting [1]) is more than 9000 nM; at Type-A CCK receptor (setting [2]) it was 12 nM.
The like results for `CN(C(=O)[C@H](CCCCNC(=O)c1ccc2cc(O)ccc2c1)NC(=O)[C@H](Cc1c[nH]c2ccccc12)NC(=O)OC(C)(C)C)[C@@H](CC(=O)O)C(=O)N(C)[C@@H](Cc1ccccc1)C(N)=O` [Example 73] (Boc-WK(2Naphthoyl(6-OH))[NMeD][NMeF]-NH2) were, in that order, 3700 nM and 15 nM.
As to `Cc1ccccc1NC(=O)NCCCC[C@H](NC(=O)[C@H](Cc1c[nH]c2ccccc12)NC(=O)OC1C2CC3CC(C2)CC1C3)C(=O)N[C@@H](CC(=O)O)C(=O)N(C)[C@@H](Cc1ccccc1)C(N)=O` (stereo partly drawn) [Example 74, 2-Adamantyloxycarbonyl-Trp-Lys(ε-N-(2-methylphenyl)aminocarbonyl)Asp-(NMe)PheNH2] (X4-WK([CO-NH(2-Me-phenyl)])D[NMeF]-NH2), the IC50 was found to be 8000 nM at Type-B CCK receptor and 22 nM at Type-A CCK receptor.
The like results for `Cc1ccccc1NC(=O)NCCCC[C@H](NC(=O)[C@H](Cc1c[nH]c2ccccc12)NC(=O)OC12CC3CC(CC(C3)C1)C2)C(=O)N[C@@H](CC(=O)O)C(=O)N(C)[C@@H](Cc1ccccc1)C(N)=O` [Example 75, 1-Adamantyloxycarbonyl-Trp-Lys(ε-N-(2-methylphenyl)aminocarbonyl)-Asp-(NMe)PheNH2] (Adoc-WK([CO-NH(2-Me-phenyl)])D[NMeF]-NH2) were, in that order, 10000 nM and 17 nM.
The like results for `Cc1ccccc1NC(=O)NCCCC[C@H](NC(=O)[C@H](Cc1c[nH]c2ccccc12)NC(=O)OCc1ccccc1)C(=O)N[C@@H](CC(=O)O)C(=O)N(C)[C@@H](Cc1ccccc1)C(N)=O` [Example 76, Benzyloxycarbonyl-Trp-Lys(ε-N-(2-methylphenyl)aminocarbonyl)-Asp-(NMe)PheNH2] (Cbz-WK([CO-NH(2-Me-phenyl)])D[NMeF]-NH2) were, in that order, 6400 nM and 18 nM.
For `Cc1ccccc1NC(=O)NCCCC[C@H](NC(=O)[C@H](Cc1c[nH]c2ccccc12)NC(=O)OCC(C)C)C(=O)N[C@@H](CC(=O)O)C(=O)N(C)[C@@H](Cc1ccccc1)C(N)=O` [Example 77, Isobutyloxycarbonyl-Trp-Lys(ε-N-(2-methylphenyl)aminocarbonyl)-Asp-(NMe)PheNH2] (Isobutyloxycarbonyl-WK([CO-NH(2-Me-phenyl)])D[NMeF]-NH2), the IC50 was 6500 nM on Type-B CCK receptor (setting [4]) and 2.3 nM at Type-A CCK receptor (setting [3]).
Take `Cc1ccccc1NC(=O)NCCCC[C@H](NC(=O)[C@H](Cc1c[nH]c2ccccc12)NC(=O)OC(C)C)C(=O)N[C@@H](CC(=O)O)C(=O)N(C)[C@@H](Cc1ccccc1)C(N)=O` [Example 78, Isopropyloxycarbonyl-Trp-Lys(ε-N-(2-methylphenyl)aminocarbonyl)-Asp-(NMe)PheNH2] (Isopropoxycarbonyl-WK([CO-NH(2-Me-phenyl)])D[NMeF]-NH2): the 50% inhibitory concentration (IC50) on Type-B CCK receptor amounted to 5000 nM; at Type-A CCK receptor (setting [3]), 1.6 nM.
Consider `Cc1ccccc1NC(=O)NCCCC[C@H](NC(=O)[C@H](Cc1c[nH]c2ccccc12)NC(=O)Oc1ccccc1)C(=O)N[C@@H](CC(=O)O)C(=O)N(C)[C@@H](Cc1ccccc1)C(N)=O` [Example 79, Phenoxycarbonyl-Trp-Lys(ε-N-(2-methylphenyl)aminocarbonyl)-Asp-(NMe)PheNH2] (X6-WK([CO-NH(2-Me-phenyl)])D[NMeF]-NH2), for which the IC50 amounted to 7200 nM at Type-B CCK receptor and 10 nM on Type-A CCK receptor.
`COC(=O)N[C@@H](Cc1c[nH]c2ccccc12)C(=O)N[C@@H](CCCCNC(=O)Nc1ccccc1C)C(=O)N[C@@H](CC(=O)O)C(=O)N(C)[C@@H](Cc1ccccc1)C(N)=O` [Example 80, Methoxycarbonyl-Trp-Lys(ε-N-(2-methylphenyl)aminocarbonyl)-Asp-(NMe)PheNH2] (Moc-WK([CO-NH(2-Me-phenyl)])D[NMeF]-NH2): the values for the IC50 on Type-B CCK receptor and at Type-A CCK receptor were 5200 nM and 4.8 nM, respectively.
For the compound `COC(=O)N[C@@H](Cc1c[nH]c2ccccc12)C(=O)N[C@@H](CCCCNC(=O)Nc1ccccc1C)C(=O)N(C)[C@@H](CC(=O)O)C(=O)N[C@@H](Cc1ccccc1)C(N)=O` [Example 81, Methoxycarbonyl-Trp-Lys(ε-N-(2-methylphenyl)aminocarbonyl)-(NMe)Asp-PheNH2] (Moc-WK([CO-NH(2-Me-phenyl)])[NMeD]F-NH2), the 50% inhibitory concentration (IC50) on Type-B CCK receptor (setting [4]) is more than 10000 nM; at Type-A CCK receptor (setting [3]), 2.1 nM.
`Cc1ccccc1NC(=O)NCCCC[C@H](NC(=O)[C@H](Cc1c[nH]c2ccccc12)NC(=O)NC(C)(C)C)C(=O)N[C@@H](CC(=O)O)C(=O)N(C)[C@@H](Cc1ccccc1)C(N)=O` [Example 82, t-Butylaminocarbonyl-Trp-Lys(ε-N-(2-methylphenyl)aminocarbonyl)-Asp(NMe)PheNH2] ({NHtBu-CO}-WK([CO-NH(2-Me-phenyl)])D[NMeF]-NH2): the IC50 on Type-B CCK receptor turned out to be 4400 nM; at Type-A CCK receptor it was 4.9 nM.
